According to patent publication US9539260B2, “Dihydro-benzo-oxazine and dihydro-pyrido-oxazine derivatives” (Novartis AG, priority 2012, dated 2017):

What was measured:
[1] = target: PI3K alpha (Homo sapiens (Human), UniProt P42336); experiment: Enzymatic PI3K alpha isoform inhibition (lipid kinase activity, Kinase-Glo luminescence); type: biochemical; conditions: Enzymatic assay
Method in brief: (§1)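 IC50s derive from 4-parameter logistic fits of % inhibition across 8 concentrations (usually 10 to 0.003 μM). Lipid kinase reaction: PI3K (10 nM) plus phosphatidylinositol (5 μg/mL) started with 2 μM ATP, stopped near 50% ATP depletion; leftover ATP quantified by Kinase-Glo luminescence.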

[2] = target: PI3K delta (Homo sapiens (Human), UniProt O00329); experiment: Enzymatic PI3K delta isoform inhibition (lipid kinase activity, Kinase-Glo luminescence); type: biochemical; conditions: Enzymatic assay
Chain of PI3K delta (O00329 other isoform, or with tags, fused parts or gaps linker GGGGGG): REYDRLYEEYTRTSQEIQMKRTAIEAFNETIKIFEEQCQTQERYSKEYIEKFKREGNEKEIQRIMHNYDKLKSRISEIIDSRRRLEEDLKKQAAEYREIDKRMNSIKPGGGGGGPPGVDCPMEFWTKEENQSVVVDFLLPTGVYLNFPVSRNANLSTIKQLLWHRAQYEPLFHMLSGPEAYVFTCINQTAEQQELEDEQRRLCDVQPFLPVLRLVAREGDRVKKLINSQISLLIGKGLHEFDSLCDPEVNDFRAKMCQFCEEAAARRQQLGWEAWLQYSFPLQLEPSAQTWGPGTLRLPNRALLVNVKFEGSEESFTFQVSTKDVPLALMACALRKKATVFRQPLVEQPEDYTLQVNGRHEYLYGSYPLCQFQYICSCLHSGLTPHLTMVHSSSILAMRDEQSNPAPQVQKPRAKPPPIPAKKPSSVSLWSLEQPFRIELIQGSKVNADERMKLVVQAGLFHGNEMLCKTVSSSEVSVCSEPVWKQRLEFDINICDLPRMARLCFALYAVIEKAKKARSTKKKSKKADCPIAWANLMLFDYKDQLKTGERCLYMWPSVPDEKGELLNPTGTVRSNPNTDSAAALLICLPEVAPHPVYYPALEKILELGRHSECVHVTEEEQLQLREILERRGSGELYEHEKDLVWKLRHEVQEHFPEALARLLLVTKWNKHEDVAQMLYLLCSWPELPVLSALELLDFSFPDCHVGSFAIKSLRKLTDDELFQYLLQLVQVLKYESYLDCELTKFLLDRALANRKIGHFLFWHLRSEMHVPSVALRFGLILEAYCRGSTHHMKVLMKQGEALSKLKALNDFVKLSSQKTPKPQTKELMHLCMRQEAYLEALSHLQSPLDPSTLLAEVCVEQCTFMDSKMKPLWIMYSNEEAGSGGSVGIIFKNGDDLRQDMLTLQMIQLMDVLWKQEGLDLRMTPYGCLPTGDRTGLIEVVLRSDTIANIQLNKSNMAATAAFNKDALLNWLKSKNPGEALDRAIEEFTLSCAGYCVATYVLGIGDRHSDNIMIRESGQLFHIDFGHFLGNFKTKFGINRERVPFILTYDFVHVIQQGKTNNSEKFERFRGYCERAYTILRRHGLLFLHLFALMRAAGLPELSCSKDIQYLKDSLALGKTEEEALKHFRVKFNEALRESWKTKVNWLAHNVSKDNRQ
Method in brief: as §1

Chain of PI3K alpha (P42336 other isoform, or with tags, fused parts or gaps): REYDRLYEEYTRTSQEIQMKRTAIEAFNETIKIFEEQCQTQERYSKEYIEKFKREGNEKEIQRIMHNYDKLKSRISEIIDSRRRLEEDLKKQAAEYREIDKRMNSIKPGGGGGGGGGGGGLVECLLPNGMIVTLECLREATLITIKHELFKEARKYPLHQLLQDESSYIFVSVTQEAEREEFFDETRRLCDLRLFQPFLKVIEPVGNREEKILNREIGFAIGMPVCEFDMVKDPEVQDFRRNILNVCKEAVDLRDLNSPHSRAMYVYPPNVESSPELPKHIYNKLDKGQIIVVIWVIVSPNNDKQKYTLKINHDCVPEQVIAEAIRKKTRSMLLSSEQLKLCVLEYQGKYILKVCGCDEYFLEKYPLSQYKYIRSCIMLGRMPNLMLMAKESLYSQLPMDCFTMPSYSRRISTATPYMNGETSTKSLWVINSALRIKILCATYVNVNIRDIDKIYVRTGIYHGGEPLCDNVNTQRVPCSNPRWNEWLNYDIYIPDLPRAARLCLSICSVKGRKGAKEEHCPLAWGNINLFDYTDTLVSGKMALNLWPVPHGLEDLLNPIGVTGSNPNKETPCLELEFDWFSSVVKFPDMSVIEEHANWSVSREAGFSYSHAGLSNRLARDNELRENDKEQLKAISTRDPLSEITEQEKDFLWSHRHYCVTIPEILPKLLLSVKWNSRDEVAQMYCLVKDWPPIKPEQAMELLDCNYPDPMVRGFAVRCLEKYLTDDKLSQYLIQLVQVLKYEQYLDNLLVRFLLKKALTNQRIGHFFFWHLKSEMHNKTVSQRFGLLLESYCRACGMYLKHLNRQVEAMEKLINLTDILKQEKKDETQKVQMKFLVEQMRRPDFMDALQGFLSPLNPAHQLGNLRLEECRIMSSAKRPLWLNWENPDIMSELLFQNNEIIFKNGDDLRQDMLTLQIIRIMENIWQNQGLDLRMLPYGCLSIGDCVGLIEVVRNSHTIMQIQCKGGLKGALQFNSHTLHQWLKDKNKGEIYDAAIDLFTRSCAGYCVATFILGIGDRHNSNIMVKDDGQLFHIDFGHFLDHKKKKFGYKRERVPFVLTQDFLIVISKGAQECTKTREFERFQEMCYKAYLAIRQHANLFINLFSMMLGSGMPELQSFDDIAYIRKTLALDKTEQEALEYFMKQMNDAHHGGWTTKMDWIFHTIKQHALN

Row | Structure (SMILES) | IC50 [1] | IC50 [2]
1 | Cc1cc(N2CCOc3ccc(O[C@H]4CCN(C(=O)c5ccncc5)C4)cc32)cnc1S(C)(=O)=O [Example B22, {(S)-3-[4-(6-Methanesulfonyl-5-methyl-pyridin-3-yl)-3,4-dihydro-2H-benzo[1,4]oxazin-6-yloxy]-pyrrolidin-1-yl}-pyridin-4-yl-methanone] | 589 nM | 5 nM
2 | COc1ncc(N2CCOc3ccc(O[C@H]4CCN(C(=O)CCO)C4)cc32)cc1Cl [Example B107, 1-{(S)-3-[4-(5-Chloro-6-methoxy-pyridin-3-yl)-3,4-dihydro-2H-benzo[1,4]oxazin-6-yloxy]-pyrrolidin-1-yl}-3-hydroxy-propan-1-one] | 239 nM | 4 nM
3 | CS(=O)(=O)c1ncc(N2CCOc3ccc(O[C@H]4CCN(C(=O)[C@@H]5CCOC5)C4)cc32)cc1C(F)F [Example B75, {(S)-3-[4-(5-Difluoromethyl-6-methanesulfonyl-pyridin-3-yl)-3,4-dihydro-2H-benzo[1,4]oxazin-6-yloxy]-pyrrolidin-1-yl}-(R)-tetrahydro-furan-3-yl-methanone] | 211 nM | 11 nM
4 | COCCC(=O)N1CC[C@H](Oc2ccc3c(c2)N(c2cnc(OC)c(OC)c2)CCO3)C1 [Example B46, 1-{(S)-3-[4-(5,6-Dimethoxy-pyridin-3-yl)-3,4-dihydro-2H-benzo[1,4]oxazin-6-yloxy]-pyrrolidin-1-yl}-3-methoxy-propan-1-one] | 2080 nM | 226 nM
5 | CCC(=O)N1CC[C@H](Oc2ccc3c(c2)N(c2ccc(OC)c(S(C)(=O)=O)c2)CCO3)C1 [Example A16, 1-{(S)-3-[4-(3-Methanesulfonyl-4-methoxy-phenyl)-3,4-dihydro-2H-benzo[1,4]oxazin-6-yloxy]-pyrrolidin-1-yl}-propan-1-one] | > 9100 nM | 323 nM
6 | COc1cc(N2CCOc3ccc(O[C@H]4CCN(C(=O)C5CCOCC5)C4)cc32)cnc1Cl [Example B54, {(S)-3-[4-(6-Chloro-5-methoxy-pyridin-3-yl)-3,4-dihydro-2H-benzo[1,4]oxazin-6-yloxy]-pyrrolidin-1-yl}-(tetrahydro-pyran-4-yl)-methanone] | 756 nM | 11 nM
7 | COc1ncc(N2CCOc3ccc(O[C@H]4CCN(C(=O)C5CNC(=O)C5)C4)cc32)cc1C#N (stereo partly drawn) [Example C19, 2-Methoxy-5-{6-[(S)-1-(5-oxo-pyrrolidine-3-carbonyl)-pyrrolidin-3-yloxy]-2,3-dihydro-benzo[1,4]oxazin-4-yl}-nicotinonitrile] | 488 nM | 21 nM
8 | CC[S+]([O-])c1ccc(N2CCOc3ccc(O[C@H]4CCN(C(=O)C5CCOCC5)C4)cc32)cn1 (stereo partly drawn) [Example B7, {(S)-3-[4-(6-Ethanesulfinyl-pyridin-3-yl)-3,4-dihydro-2H-benzo[1,4]oxazin-6-yloxy]-pyrrolidin-1-yl}-(tetrahydro-pyran-4-yl)-methanone] | 3540 nM | 114 nM
9 | CCC(=O)N1CC[C@H](Oc2ccc3c(c2)N(c2cnc(OC)c(OC)c2)CCO3)C1 [Example B4, 1-{(S)-3-[4-(5,6-Dimethoxy-pyridin-3-yl)-3,4-dihydro-2H-benzo[1,4]oxazin-6-yloxy]-pyrrolidin-1-yl}-propan-1-one] | 1230 nM | 83 nM
10 | CCC(=O)N1CC[C@H](Oc2ccc3c(c2)N(c2ccc(OC)c(C(F)(F)F)c2)CCO3)C1 [Example A41, 1-{(S)-3-[4-(4-Methoxy-3-trifluoromethyl-phenyl)-3,4-dihydro-2H-benzo[1,4]oxazin-6-yloxy]-pyrrolidin-1-yl}-propan-1-one] | 2790 nM | 296 nM
11 | COc1ncc(N2CCOc3ccc(O[C@H]4CCN(C(=O)C5CCOC5)C4)cc32)cc1C (stereo partly drawn) [Example B16, {(S)-3-[4-(6-Methoxy-5-methyl-pyridin-3-yl)-3,4-dihydro-2H-benzo[1,4]oxazin-6-yloxy]-pyrrolidin-1-yl}-(tetrahydro-furan-3-yl)-methanone] | 4120 nM | 37 nM
12 | Cc1cc(N2CCOc3ccc(O[C@H]4CCN(c5ncccn5)C4)cc32)cnc1S(C)(=O)=O [N, 4-(6-Methanesulfonyl-5-methyl-pyridin-3-yl)-6-((S)-1-pyrimidin-2-yl-pyrrolidin-3-yloxy)-3,4-dihydro-2H-benzo[1,4]oxazine] | 838 nM | 12 nM
13 | CCC(=O)N1CC[C@H](Oc2ccc3c(c2)N(c2ccc(S(=O)(=O)CC)nc2)CCO3)C1 [Example B96, 1-{(S)-3-[4-(6-Ethanesulfonyl-pyridin-3-yl)-3,4-dihydro-2H-benzo[1,4]oxazin-6-yloxy]-pyrrolidin-1-yl}-propan-1-one] | > 9100 nM | 118 nM
14 | COCCC(=O)N1CC[C@H](Oc2ccc3c(c2)N(c2cnc(S(C)(=O)=O)c(C)c2)CCO3)C1 [Example B37, 1-{(S)-3-[4-(6-Methanesulfonyl-5-methyl-pyridin-3-yl)-3,4-dihydro-2H-benzo[1,4]oxazin-6-yloxy]-pyrrolidin-1-yl}-3-methoxy-propan-1-one] | 1100 nM | 103 nM
15 | CCS(=O)(=O)c1ccc(N2CCOc3ccc(O[C@H]4CCN(C(=O)C5CCOCC5)C4)cc32)cn1 [Example B87, {(S)-3-[4-(6-Ethanesulfonyl-pyridin-3-yl)-3,4-dihydro-2H-benzo[1,4]oxazin-6-yloxy]-pyrrolidin-1-yl}-(tetrahydro-pyran-4-yl)-methanone] | 7090 nM | 29 nM
16 | Cc1cc(N2CCOc3ccc(O[C@H]4CCN(C(=O)C5CCS(=O)(=O)CC5)C4)cc32)cnc1OC(F)F [Example B73, {(S)-3-[4-(6-Difluoromethoxy-5-methyl-pyridin-3-yl)-3,4-dihydro-2H-benzo[1,4]oxazin-6-yloxy]-pyrrolidin-1-yl}-(1,1-dioxo-hexahydro-6-thiopyran-4-yl)-methanone] | 1770 nM | 30 nM
17 | CCC(=O)N1CC[C@H](Oc2ccc3c(c2)N(c2cnc(Cl)c(C)c2)CCO3)C1 [Example B59, 1-{(S)-3-[4-(6-Chloro-5-methyl-pyridin-3-yl)-3,4-dihydro-2H-benzo[1,4]oxazin-6-yloxy]-pyrrolidin-1-yl}-propan-1-one] | 461 nM | 17 nM
18 | COc1ncc(N2CCOc3ccc(O[C@H]4CCN(C(=O)c5ccno5)C4)cc32)cc1C#N [Example C9, 5-{6-[(S)-1-(Isoxazole-5-carbonyl)-pyrrolidin-3-yloxy]-2,3-dihydro-benzo[1,4]oxazin-4-yl}-2-methoxy-nicotinonitrile] | 185 nM | 6 nM
19 | CCC(=O)N1CC[C@H](Oc2ccc3c(c2)N(c2cncc(S(=O)(=O)N(C)C)c2)CCO3)C1 [Example A39, 5-[6-((S)-1-Propionyl-pyrrolidin-3-yloxy)-2,3-dihydro-benzo[1,4]oxazin-4-yl]-pyridine-3-sulfonic acid dimethylamide] | 71 nM | 9 nM

The next lines start with the values.

Row | IC50 [1] | IC50 [2] | Structure (SMILES)
20 | 94 nM | 9 nM | COc1ncc(N2CCOc3ccc(O[C@H]4CCN(C(=O)c5cnco5)C4)cc32)cc1C#N [Example D32, 2-Methoxy-5-{6-[(S)-1-(oxazole-5-carbonyl)-pyrrolidin-3-yloxy]-2,3-dihydro-benzo[1,4]oxazin-4-yl}-nicotinonitrile]
21 | 206 nM | 7 nM | COc1ncc(N2CCOc3ccc(O[C@H]4CCN(C(=O)c5ccc(=O)[nH]c5)C4)cc32)cc1C#N [Example D20, 2-Methoxy-5-{6-[(S)-1-(6-oxo-1,6-dihydro-pyridine-3-carbonyl)-pyrrolidin-3-yloxy]-2,3-dihydro-benzo[1,4]oxazin-4-yl}-nicotinonitrile]
22 | 724 nM | 8 nM | COc1ncc(N2CCOc3ccc(O[C@H]4CCN(C(=O)C5COCCO5)C4)cc32)cc1F (single isomer, unassigned) [Example H15]
23 | 559 nM | 8 nM | Cc1cc(N2CCOc3ccc(O[C@H]4CCN(C(=O)C5COCCO5)C4)cc32)cnc1S(C)(=O)=O (single isomer, unassigned) [Example H3]
24 | 142 nM | < 3 nM | COCC(=O)N1CC[C@H](Oc2ccc3c(c2)N(c2cnc(OC)c(C#N)c2)CCO3)C1 [Example D12, 2-Methoxy-5-{6-[(S)-1-(2-methoxy-acetyl)-pyrrolidin-3-yloxy]-2,3-dihydro-benzo[1,4]oxazin-4-yl}-nicotinonitrile]
25 | 1240 nM | 28 nM | COc1ncc(N2CCOc3ccc(O[C@H]4CON(C(=O)c5cn(C)cn5)C4)cc32)cc1C#N [Example D26, 2-Methoxy-5-{6-[(R)-2-(1-methyl-1H-imidazole-4-carbonyl)-isoxazolidin-4-yloxy]-2,3-dihydro-benzo[1,4]oxazin-4-yl}-nicotinonitrile]
26 | 842 nM | 18 nM | COc1ncc(N2CCOc3ccc(O[C@H]4CCN(C(=O)C5CCS(=O)(=O)CC5)C4)c(F)c32)cc1C [Example I1, (1,1-Dioxo-hexahydro-1lambda*6*-thiopyran-4-yl)-{(S)-3-[5-fluoro-4-(6-methoxy-5-methyl-pyridin-3-yl)-3,4-dihydro-2H-benzo[1,4]oxazin-6-yloxy]-pyrrolidin-1-yl}-methanone]
27 | 281 nM | 19 nM | COc1ncc(N2CCOc3ccc(O[C@H]4CCN(C(=O)c5cocn5)C4)cc32)cc1C#N [Example D18, 2-Methoxy-5-{6-[(S)-1-(oxazole-4-carbonyl)-pyrrolidin-3-yloxy]-2,3-dihydro-benzo[1,4]oxazin-4-yl}-nicotinonitrile]
28 | 519 nM | 41 nM | COc1ncc(N2CCOc3ccc(O[C@H]4CCN(C(=O)c5cc[nH]c(=O)c5)C4)cc32)cc1C#N [Example D21, 2-Methoxy-5-{6-[(S)-1-(2-oxo-1,2-dihydro-pyridine-4-carbonyl)-pyrrolidin-3-yloxy]-2,3-dihydro-benzo[1,4]oxazin-4-yl}-nicotinonitrile]
